Assay results as given in PMC12951562, “SH2scan: Mapping SH2 Domain-Ligand Binding Selectivity for Inhibitors and Degraders” (Journal of Medicinal Chemistry, 2026).
Like-named read-outs stand apart in the source and are kept apart here. Non-standard residues stand in square brackets, D forms with d. Residues, ends and D or L forms follow the SMILES beside them. *: point of attachment. pY = N[C@@H](Cc1ccc(OP(=O)(O)O)cc1)C(=O)O; Caffeoyl = O=C(/C=C/c1ccc(O)c(O)c1)*

How the values were obtained:
Experiment in all cases: biochemical
Format in all cases: binding
APS (SH2B2) = biological target: T1, APS (SH2B2) (Homo sapiens, UniProt O14492); settings: for percent of DMSO vehicle control at 10 µM / remaining activity at 10 µM: read-out: percent of DMSO vehicle control
T1 construct: the DNA-tagged SH2 domain concentrations used in this study were <0.1 nM; made in house; host or cells: HEK293 (transient transfection; unpurified extract)
T1 sequence (O14492 417-515 limits assumed): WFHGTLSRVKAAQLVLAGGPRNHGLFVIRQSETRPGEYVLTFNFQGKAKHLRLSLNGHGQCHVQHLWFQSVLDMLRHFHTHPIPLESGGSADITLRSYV

BLNK = biological target: T2, BLNK (Homo sapiens, UniProt Q8WV28); settings: for remaining activity at 10 µM: read-out: percent of DMSO vehicle control
T2 construct: the DNA-tagged SH2 domain concentrations used in this study were <0.1 nM; made in house; host or cells: HEK293 (transient transfection; unpurified extract)
T2 sequence (Q8WV28 346-453 limits assumed): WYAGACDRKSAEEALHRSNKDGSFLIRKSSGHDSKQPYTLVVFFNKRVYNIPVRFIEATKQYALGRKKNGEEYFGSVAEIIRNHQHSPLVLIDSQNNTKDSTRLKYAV

GRB14 = biological target: T3, GRB14 (Homo sapiens, UniProt Q14449); settings: for remaining activity at 10 µM: read-out: percent of DMSO vehicle control
T3 construct: the DNA-tagged SH2 domain concentrations used in this study were <0.1 nM; made in house; host or cells: HEK293 (transient transfection; unpurified extract)
T3 sequence (Q14449 439-535 limits assumed): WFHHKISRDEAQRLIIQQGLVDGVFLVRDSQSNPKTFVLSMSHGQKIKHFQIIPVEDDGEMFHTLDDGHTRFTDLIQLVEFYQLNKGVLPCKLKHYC

HSH2D = biological target: T4, HSH2D (Homo sapiens, UniProt Q96JZ2); settings: for percent of DMSO vehicle control at 10 µM / remaining activity at 10 µM: read-out: percent of DMSO vehicle control
T4 construct: the DNA-tagged SH2 domain concentrations used in this study were <0.1 nM; made in house; host or cells: HEK293 (transient transfection, unpurified extract)
T4 sequence (Q96JZ2 34-125 limits assumed): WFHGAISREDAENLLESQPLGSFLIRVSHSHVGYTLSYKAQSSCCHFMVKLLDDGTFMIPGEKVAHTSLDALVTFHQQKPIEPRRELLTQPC

PIK3R3(SH2dom.N-term.) = biological target: T5, PIK3R3(SH2dom.N-term.) (Homo sapiens, UniProt Q92569); settings: for remaining activity at 10 µM: read-out: percent of DMSO vehicle control
T5 construct: SH2dom.N-term. denotes SH2 domain closest to N-terminus of protein; made in house; host or cells: HEK293 (transient transfection, unpurified extract)

SHIP1 = biological target: T6, SHIP1 (Homo sapiens, UniProt Q92835); settings: for percent of DMSO vehicle control: primary screen, 10 μM
T6 construct: made in house; host or cells: HEK293 (transient transfection), unpurified extract
T6 sequence (Q92835 1-1189): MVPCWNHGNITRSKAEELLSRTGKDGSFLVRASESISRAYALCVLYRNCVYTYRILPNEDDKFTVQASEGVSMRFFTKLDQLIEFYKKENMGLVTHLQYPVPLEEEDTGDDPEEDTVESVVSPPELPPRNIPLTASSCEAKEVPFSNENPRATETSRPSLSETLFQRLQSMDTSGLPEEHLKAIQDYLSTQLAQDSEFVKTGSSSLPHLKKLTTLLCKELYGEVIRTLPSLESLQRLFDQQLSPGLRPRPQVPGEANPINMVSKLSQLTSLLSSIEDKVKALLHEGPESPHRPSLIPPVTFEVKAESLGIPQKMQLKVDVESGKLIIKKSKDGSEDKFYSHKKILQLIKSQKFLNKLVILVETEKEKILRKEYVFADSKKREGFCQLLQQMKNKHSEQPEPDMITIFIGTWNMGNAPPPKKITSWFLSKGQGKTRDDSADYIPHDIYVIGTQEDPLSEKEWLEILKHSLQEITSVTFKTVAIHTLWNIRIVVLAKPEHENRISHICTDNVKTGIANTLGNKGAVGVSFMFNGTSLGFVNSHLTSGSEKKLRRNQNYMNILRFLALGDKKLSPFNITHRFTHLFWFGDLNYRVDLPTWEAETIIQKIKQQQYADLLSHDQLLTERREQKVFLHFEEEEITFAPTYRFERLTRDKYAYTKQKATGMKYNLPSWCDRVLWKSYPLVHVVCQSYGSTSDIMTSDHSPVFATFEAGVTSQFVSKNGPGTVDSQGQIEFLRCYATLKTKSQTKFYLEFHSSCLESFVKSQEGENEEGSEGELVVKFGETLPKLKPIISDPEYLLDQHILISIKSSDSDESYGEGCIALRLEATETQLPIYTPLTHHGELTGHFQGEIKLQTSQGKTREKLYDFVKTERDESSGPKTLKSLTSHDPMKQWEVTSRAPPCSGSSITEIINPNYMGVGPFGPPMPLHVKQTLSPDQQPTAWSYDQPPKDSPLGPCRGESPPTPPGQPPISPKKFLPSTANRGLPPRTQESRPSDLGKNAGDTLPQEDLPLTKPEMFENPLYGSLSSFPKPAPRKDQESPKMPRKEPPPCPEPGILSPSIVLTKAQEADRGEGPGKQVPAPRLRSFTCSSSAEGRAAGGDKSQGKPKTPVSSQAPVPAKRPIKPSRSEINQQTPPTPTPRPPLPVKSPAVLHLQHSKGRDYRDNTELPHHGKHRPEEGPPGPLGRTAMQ

SRMS = biological target: T7, SRMS (Homo sapiens, UniProt Q9H3Y6); settings: for remaining activity at 10 µM: read-out: percent of DMSO vehicle control; for KD: dose-response
T7 construct: made in house; host or cells: HEK293 (transient transfection), unpurified extract
T7 sequence (Q9H3Y6 whole entry): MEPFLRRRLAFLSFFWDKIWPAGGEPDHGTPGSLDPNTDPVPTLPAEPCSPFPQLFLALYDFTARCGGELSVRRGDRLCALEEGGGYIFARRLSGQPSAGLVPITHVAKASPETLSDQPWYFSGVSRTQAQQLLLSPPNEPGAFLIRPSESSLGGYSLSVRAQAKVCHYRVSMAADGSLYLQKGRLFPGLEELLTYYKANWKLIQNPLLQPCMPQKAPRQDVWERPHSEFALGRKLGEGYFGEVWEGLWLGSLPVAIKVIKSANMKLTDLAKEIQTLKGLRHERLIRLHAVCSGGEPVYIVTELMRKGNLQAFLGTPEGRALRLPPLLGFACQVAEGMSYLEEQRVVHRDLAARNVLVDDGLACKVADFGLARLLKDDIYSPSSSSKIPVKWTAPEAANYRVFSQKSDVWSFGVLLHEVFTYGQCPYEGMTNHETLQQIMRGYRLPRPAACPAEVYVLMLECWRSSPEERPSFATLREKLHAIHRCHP

STAT4 = biological target: T8, STAT4 (Homo sapiens, UniProt Q14765); settings: for percent of DMSO vehicle control: primary screen, 10 μM
T8 construct: made in house; host or cells: HEK293 (transient transfection), unpurified extract
T8 sequence (Q14765 1-748): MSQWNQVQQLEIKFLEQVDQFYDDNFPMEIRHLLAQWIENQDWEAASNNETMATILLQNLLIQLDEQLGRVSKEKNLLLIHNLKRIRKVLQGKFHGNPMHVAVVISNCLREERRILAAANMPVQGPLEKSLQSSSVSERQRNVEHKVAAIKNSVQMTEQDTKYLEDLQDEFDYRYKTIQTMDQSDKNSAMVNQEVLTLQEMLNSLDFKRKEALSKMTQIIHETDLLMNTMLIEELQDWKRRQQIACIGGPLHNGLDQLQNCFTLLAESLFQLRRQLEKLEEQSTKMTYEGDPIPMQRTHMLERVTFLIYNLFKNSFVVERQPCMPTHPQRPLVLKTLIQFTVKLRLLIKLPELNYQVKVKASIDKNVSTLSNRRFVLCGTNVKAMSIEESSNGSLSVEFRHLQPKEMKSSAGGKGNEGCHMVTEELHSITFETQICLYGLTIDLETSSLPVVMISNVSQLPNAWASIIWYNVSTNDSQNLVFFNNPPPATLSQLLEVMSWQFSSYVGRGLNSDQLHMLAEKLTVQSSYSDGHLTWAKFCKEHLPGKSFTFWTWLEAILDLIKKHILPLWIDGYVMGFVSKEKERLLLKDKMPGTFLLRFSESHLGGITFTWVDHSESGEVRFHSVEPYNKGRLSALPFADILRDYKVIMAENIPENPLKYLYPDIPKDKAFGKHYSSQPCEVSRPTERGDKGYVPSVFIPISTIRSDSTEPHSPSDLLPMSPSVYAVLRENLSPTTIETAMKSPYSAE

Structure (SMILES) | percent of DMSO vehicle control (SHIP1) [%] | percent of DMSO vehicle control (STAT4) [%] | percent of DMSO vehicle control at 10 µM (APS (SH2B2)) [%] | remaining activity at 10 µM (BLNK) [%] | remaining activity at 10 µM (GRB14) [%] | percent of DMSO vehicle control at 10 µM (HSH2D) [%] | remaining activity at 10 µM (PIK3R3(SH2dom.N-term.)) [%] | remaining activity at 10 µM (SRMS) [%] | remaining activity at 10 µM (APS (SH2B2); primary screen, 10 μM) [%] | remaining activity at 10 µM (BLNK; primary screen, 10 μM) [%] | remaining activity at 10 µM (GRB14; primary screen, 10 μM) [%] | remaining activity at 10 µM (HSH2D; primary screen, 10 μM) [%] | remaining activity at 10 µM (PIK3R3(SH2dom.N-term.); primary screen, 10 μM) [%] | KD (SRMS) | remaining activity at 10 µM (SRMS; primary screen, 10 μM) [%] | also measured
CC[C@H](C)[C@H](NC(=O)[C@H](CCC(=O)O)NC(=O)[C@H](CCC(=O)O)NC(=O)[C@H](Cc1ccc(OP(=O)(O)O)cc1)NC(C)=O)C(=O)N[C@@H](CCC(=O)O)C(N)=O [Ac-pYEEIE-NH2] (Ac-[pY]EEIE-NH2) | 79.4±1.4 | 106.6 |  |  |  |  |  |  |  |  |  |  |  |  |  | percent of DMSO vehicle control (APS (SH2B2); primary screen, 10 μM): 121.8%; percent of DMSO vehicle control (BLNK; primary screen, 10 μM): 118.9%; percent of DMSO vehicle control (GRB14; primary screen, 10 μM): 56.1±7.2%; percent of DMSO vehicle control (HSH2D; primary screen, 10 μM): 127.4%; percent of DMSO vehicle control (PIK3R3(SH2dom.N-term.); primary screen, 10 μM): 85.7%; percent of DMSO vehicle control (SRMS; primary screen, 10 μM): 62.7±1.1%
CC(=O)N[C@@H](Cc1ccc(CP(=O)(O)O)cc1)C(=O)NC1(C(=O)N[C@@H](CC(N)=O)C(=O)NCCCc2c(O)ccc3ccccc23)CCCCC1 [CGP78850] | 77.7±20.9 | 91.4±14.0 | 128 ± 7.6 | 117 ± 7.1 | 45.5 ± 1.4 | 8.1 ± 6.6 | 111 ± 10.3 | 65.3 ± 5.9 |  |  |  |  |  |  |  | Kd (HSH2D): 1.6 ± 0.35 µM
CC[C@H](C)[C@H](NC(=O)[C@H](CCC(=O)O)NC(=O)[C@H](CCC(=O)O)NC(=O)[C@H](Cc1ccc(OP(=O)(O)O)cc1)NC(=O)/C=C/c1ccc(O)c(O)c1)C(=O)N[C@@H](CCC(=O)O)C(=O)O [Caffeic acid-pYEEIE] (Caffeoyl-[pY]EEIE-OH) | 9.0±2.9 | 8.8±0.4 | 2.2 ± 0.3 | 3.2 ± 0.6 | 0 | 80.3 ± 18.6 | 0.6 | 0.1 |  |  |  |  |  |  |  | Kd (APS (SH2B2)): 2300 ± 450 nM; Kd (BLNK): 240 ± 24 nM; Kd (GRB14): 1200 ± 920 nM; Kd (PIK3R3(SH2dom.N-term.)): 150 ± 20 nM; Kd (SHIP1): 5.8 ± 1.6 µM; Kd (SRMS): 1.2 ± 0.73 nM; Kd (STAT4): 4400 ± 370 nM
O=C(CCl)Nc1cccc(CNC(=O)[C@H](Cc2ccc(OP(=O)(O)O)cc2)NC(=O)Cc2ccc(F)cc2)c1 [MN551] | 19.1 | 22±0.8 |  |  |  |  |  |  | 94.2 ± 3.2 | 101 | 62.1 ± 2.4 | 3 ± 0.2 | 97.7 | No Hit | 1.3 ± 0.6 | Kd (HSH2D; dose-response, read-out: KD): 8.7 µM; KD (SHIP1; dose-response): No Hit; KD (STAT4; dose-response): No Hit
NC(=O)CC[C@H](NC(=O)[C@@H]1CC[C@@H]2CCN(C(=O)CCCCCC#Cc3cccc4c3CN(C3CCC(=O)NC3=O)C4=O)C[C@H](NC(=O)c3cc4cc(C(F)(F)P(=O)(O)O)ccc4[nH]3)C(=O)N21)C(=O)NC(c1ccccc1)c1ccccc1 (stereo partly drawn) [SD-36] | 44.1±5.9 | 1.1±0.2 | 140 ± 6.1 | 104 | 43.2 ± 2.9 | 72.7 ± 14.5 | 111 ± 7.3 | 102 ± 1.9 |  |  |  |  |  |  |  | Kd (STAT4; dose-response): 120 ± 110 nM
CC(=O)N1CC[C@H]2CC[C@@H](C(=O)N[C@@H](CCC(N)=O)C(=O)NC(c3ccccc3)c3ccccc3)N2C(=O)[C@@H](NC(=O)c2cc3cc(C(F)(F)P(=O)(O)O)ccc3[nH]2)C1 [SI-109] | 101.8 | 7.3±0.1 | 130 | 117 | 110 | 154 | 142 | 123 |  |  |  |  |  |  |  | Kd (STAT4): 240 ± 106 nM
C/C(=C\C(=O)N[C@H](C(=O)N1CCC[C@H]1C(=O)N(c1ccccc1)c1ccc(I)cc1)C(C)(C)C)c1ccc(OP(=O)(O)O)cc1 [STAT6-IN-1] | 4.4±1.3 | 0.0±0.0 |  |  |  |  |  |  | 45.3 ± 5.2 | 116 ± 19.9 | 24.5 ± 4 | 14.6 ± 0.1 | 48.3 ± 1.7 | No Hit | 7.6 ± 0.5 | Kd (GRB14; dose-response, read-out: KD): 3500 ± 420 nM; KD (HSH2D; dose-response): No Hit; Kd (SHIP1; dose-response, read-out: KD): 4.4 ± 0.42 µM; Kd (STAT4; dose-response, read-out: KD): 220 ± 67 nM
CC(C)(C)[C@H](NC(=O)/C=C/c1ccc(OP(=O)(O)O)cc1)C(=O)N1CCC[C@H]1C(=O)N(c1ccccc1)c1ccc(I)cc1 [STAT6-IN-3] | 53.7±3.2 | 0.2±0.3 |  |  |  |  |  |  | 66.4 ± 17.9 | 145 ± 22.5 | 79.3 ± 7.7 | 19.6 ± 29.7 | 85.8 ± 16.7 | No Hit | 8.5 ± 53.2 | Kd (HSH2D; dose-response, read-out: KD): 7.6 ± 1.6 µM; Kd (STAT4; dose-response, read-out: KD): 520 ± 270 nM
O=C(COc1ccc2cc(C(=O)Nc3ccccc3)ccc2c1)NCc1ccc(OP(=O)(O)O)c(OP(=O)(O)O)c1 [Stafib-1] | 61.1±7.3 | 57.6±15.3 |  |  |  |  |  |  | 64.6 ± 31.3 | 158 | 55.1 ± 11.6 | 27.1 | 105 | No Hit | 8.9 ± 56.2 | KD (HSH2D; dose-response): No Hit
